Source: patent US20260315606A1, “NOVEL COMPOUNDS CAPABLE OF INDUCING OSTEOGENIC DIFFERENTIATION” (AJOU UNIVERSITY INDUSTRY-ACADEMIC COOPERATION FOUNDATION, priority 2023, published 2026)

Tests used:
MDM2 = biological target: T1, MDM2 (Homo sapiens, UniProt Q00987); assay: Western blot (SDS-PAGE) of intracellular MDM2 protein degradation in hDPSCs; type: cell-based; conditions: FIG. 2; selected treatment concentrations not given
T1 construct: degradation by nutlin-based CRBN-recruiting PROTACs, Western blot
Experimental: Human dental pulp stem cell lines (hDPSCs) were treated with 14 types of synthesized MDM2-PROTACs (10 μM) for 1 hour and Western blot analysis using SDS-PAGE gel was performed to evaluate the intracellular MDM2 protein degradation capacity.

p53 = p53 activation in selection of compounds (FIG. 2); type: cell-based, human; conditions: selected treatment concentrations not given

T1 sequence (Q00987 whole entry): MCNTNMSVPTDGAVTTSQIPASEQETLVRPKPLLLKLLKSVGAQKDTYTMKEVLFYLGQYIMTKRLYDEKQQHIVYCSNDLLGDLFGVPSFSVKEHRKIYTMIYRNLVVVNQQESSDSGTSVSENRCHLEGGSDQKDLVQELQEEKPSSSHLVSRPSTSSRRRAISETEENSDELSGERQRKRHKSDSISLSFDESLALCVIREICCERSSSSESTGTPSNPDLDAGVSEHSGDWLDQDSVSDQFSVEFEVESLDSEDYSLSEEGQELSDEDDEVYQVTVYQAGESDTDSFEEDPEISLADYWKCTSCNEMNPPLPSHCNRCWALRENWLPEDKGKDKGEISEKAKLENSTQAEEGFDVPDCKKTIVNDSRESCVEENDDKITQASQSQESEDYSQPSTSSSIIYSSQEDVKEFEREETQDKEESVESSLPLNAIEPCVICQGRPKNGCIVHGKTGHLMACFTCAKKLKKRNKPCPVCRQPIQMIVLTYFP
T1 sequence (Q96SW2 whole entry partner): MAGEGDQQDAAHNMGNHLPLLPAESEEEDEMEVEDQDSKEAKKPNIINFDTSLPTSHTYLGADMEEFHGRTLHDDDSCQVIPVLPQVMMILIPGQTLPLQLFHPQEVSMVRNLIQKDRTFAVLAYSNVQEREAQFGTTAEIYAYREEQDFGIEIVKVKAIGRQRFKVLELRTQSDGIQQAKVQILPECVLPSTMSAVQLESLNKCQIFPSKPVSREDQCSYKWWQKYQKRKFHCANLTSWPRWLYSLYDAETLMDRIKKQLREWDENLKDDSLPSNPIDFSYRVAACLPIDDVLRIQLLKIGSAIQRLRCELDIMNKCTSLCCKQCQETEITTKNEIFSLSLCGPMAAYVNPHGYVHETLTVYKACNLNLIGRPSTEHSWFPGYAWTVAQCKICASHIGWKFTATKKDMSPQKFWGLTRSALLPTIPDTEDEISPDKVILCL

MDM2 degradation (selected compounds) (MDM2) | Substance | p53 activation (selected compounds) (p53)
effectively degrade MDM2 | 2-(4-(cis-4,5-bis(4-chlorophenyl)-2-(2-isopropoxy-4-methoxyphenyl)-4,5-dihydro-1H-imidazole-1-carbonyl)-2-oxopiperazin-1-yl)-N-(8-((2-(2,6-dioxo-opiperidin-3-yl)-1,3-dioxoisoindolin-4-yl)oxy)octyl)acetamide [Compound 6b] | activate p53
effectively degrade MDM2 | 2-(4-(cis-4,5-bis(4-chlorophenyl)-2-(2-isopropoxy-oxopiperazin-1-yl)-N-(9-(2-(2,6-dioxopiperidin-3-yl)-1,3-dioxoisoindolin-4-yl)non-8-yn-1-yl) acetamide [Compound 16b] | activate p53
